Measured values as given in ChEMBL document CHEMBL1212936, “Discovery of 2-[1-(4-chlorophenyl)cyclopropyl]-3-hydroxy-8-(trifluoromethyl)quinoline-4-carboxylic acid (PSI-421), a P-selectin inhibitor with improved pharmacokinetic properties and oral efficacy in models of vascular injury” (J Med Chem, 2010).
≈ marks a conversion by molar mass, not a printed value. Calls of active or inactive are those of the source. The calls are words filed in the database; no cut-off is given here.

What was measured:
[1] = Aqueous solubility of the compound at pH 6.6; type: physicochemical; conditions: aqueous solution
[2] = Aqueous solubility of the compound at pH 7.4; type: physicochemical; conditions: aqueous solution, read-out: solubility
[3] = Oral bioavailability in Sprague-Dawley rat at 10 mg/kg; type: ADME, organism-based; conditions: in vivo
[4] = Clearance in Sprague-Dawley rat at 3 mg/kg, iv and 10 mg/kg, po; type: ADME, organism-based; conditions: in vivo
[5] = tested on: Rattus norvegicus; test: Dose normalized AUC in Sprague-Dawley rat measured per mg of plasma at 3 mg/kg, iv and 10 mg/kg, po; type: ADME, organism-based; conditions: in vivo
[6] = tested on: Mus musculus; test: Reduction of leukocytes rolling flux in acute intravital microscopy model of C57B6 mouse cremasteric postcapillary venules at 50 mg/kg, po after 35 mins relative to control; type: functional; set-up: scale not given: the % may be the effect or the level left
[7] = Physiological stability of the compound at pH 1 assessed as compound remaining after 4 hrs in presence of 20% acetonitrile; type: physicochemical; conditions: read-out: Stability
[8] = Physiological stability of the compound at pH 1 assessed as compound remaining after 8 hrs in presence of 20% acetonitrile; type: physicochemical; conditions: read-out: Stability
[9] = Physiological stability of the compound at pH 1 assessed as compound remaining after 12 hrs in presence of 20% acetonitrile; type: physicochemical; conditions: read-out: Stability
[10] = Physiological stability of the compound at pH 4.5 assessed as compound remaining after 4 hrs in presence of 20% acetonitrile; type: physicochemical; conditions: read-out: Stability
[11] = Physiological stability of the compound at pH 4.5 assessed as compound remaining after 12 hrs in presence of 20% acetonitrile; type: physicochemical; conditions: read-out: Stability
[12] = Physiological stability of the compound at pH 4.5 assessed as compound remaining after 16 hrs in presence of 20% acetonitrile; type: physicochemical; conditions: read-out: Stability
[13] = Physiological stability of the compound at pH 4.5 assessed as compound remaining after 20 hrs in presence of 20% acetonitrile; type: physicochemical; conditions: read-out: Stability
[14] = Physiological stability of the compound at pH 4.5 assessed as compound remaining after 24 hrs in presence of 20% acetonitrile; type: physicochemical; conditions: read-out: Stability
[15] = Physiological stability of the compound at pH 6.6 assessed as compound remaining after 4 hrs in presence of 20% acetonitrile; type: physicochemical; conditions: read-out: Stability
[16] = Physiological stability of the compound at pH 6.6 assessed as compound remaining after 12 hrs in presence of 20% acetonitrile; type: physicochemical; conditions: read-out: Stability
[17] = Physiological stability of the compound at pH 6.6 assessed as compound remaining after 16 hrs in presence of 20% acetonitrile; type: physicochemical; conditions: read-out: Stability
[18] = Physiological stability of the compound at pH 6.6 assessed as compound remaining after 20 hrs in presence of 20% acetonitrile; type: physicochemical; conditions: read-out: Stability
[19] = Physiological stability of the compound at pH 6.6 assessed as compound remaining after 24 hrs in presence of 20% acetonitrile; type: physicochemical; conditions: read-out: Stability
[20] = Physiological stability of the compound at pH 7.4 assessed as compound remaining after 12 hrs in presence of 20% acetonitrile; type: physicochemical; conditions: read-out: Stability
[21] = Physiological stability of the compound at pH 7.4 assessed as compound remaining after 16 hrs in presence of 20% acetonitrile; type: physicochemical; conditions: read-out: Stability
[22] = Physiological stability of the compound at pH 7.4 assessed as compound remaining after 20 hrs in presence of 20% acetonitrile; type: physicochemical; conditions: read-out: Stability
[23] = Physiological stability of the compound at pH 7.4 assessed as compound remaining after 24 hrs in presence of 20% acetonitrile; type: physicochemical; conditions: read-out: Stability
[24] = Physiological stability of the compound at pH 9 assessed as compound remaining after 4 hrs in presence of 20% acetonitrile; type: physicochemical; conditions: read-out: Stability
[25] = Physiological stability of the compound at pH 9 assessed as compound remaining after 8 hrs in presence of 20% acetonitrile; type: physicochemical; conditions: read-out: Stability
[26] = Physiological stability of the compound at pH 9 assessed as compound remaining after 16 hrs in presence of 20% acetonitrile; type: physicochemical; conditions: read-out: Stability
[27] = Physiological stability of the compound at pH 9 assessed as compound remaining after 20 hrs in presence of 20% acetonitrile; type: physicochemical; conditions: read-out: Stability
[28] = Physiological stability of the compound at pH 9 assessed as compound remaining after 24 hrs in presence of 20% acetonitrile; type: physicochemical; conditions: read-out: Stability
[29] = Physiological stability of the compound in simulated intestinal fluid assessed as compound remaining after 12 hrs in presence of 20% acetonitrile; type: physicochemical; conditions: read-out: Stability
[30] = Physiological stability of the compound in simulated intestinal fluid assessed as compound remaining after 16 hrs in presence of 20% acetonitrile; type: physicochemical; conditions: read-out: Stability
[31] = Physiological stability of the compound in simulated intestinal fluid assessed as compound remaining after 20 hrs in presence of 20% acetonitrile; type: physicochemical; conditions: read-out: Stability
[32] = Physiological stability of the compound in simulated intestinal fluid assessed as compound remaining after 24 hrs in presence of 20% acetonitrile; type: physicochemical; conditions: read-out: Stability
[33] = Physiological stability of the compound in simulated intestinal bile salts-lecithin mixture fluid assessed as compound remaining after 8 hrs in presence of 20% acetonitrile; type: physicochemical; conditions: read-out: Stability
[34] = Physiological stability of the compound in simulated intestinal bile salts-lecithin mixture fluid assessed as compound remaining after 20 hrs in presence of 20% acetonitrile; type: physicochemical; conditions: read-out: Stability
[35] = Physiological stability of the compound in simulated intestinal bile salts-lecithin mixture fluid assessed as compound remaining after 24 hrs in presence of 20% acetonitrile; type: physicochemical; conditions: read-out: Stability
[36] = Half life in Sprague-Dawley rat liver microsomes; type: ADME, Microsome
[37] = Half life in Beagle dog liver microsomes; type: ADME, Canis lupus familiaris, Microsome
[38] = Half life in cynomolgus monkey liver microsomes; type: ADME, Macaca fascicularis, Microsome
[39] = Oral bioavailability in C57B6 mouse at 10 mg/kg; type: ADME, organism-based; conditions: in vivo
[40] = Clearance in C57B6 mouse at 2 mg/kg, iv and 10 mg/kg, po; type: ADME, organism-based; conditions: in vivo
[41] = tested on: Mus musculus; test: Dose normalized AUC in C57B6 mouse measured per mg of plasma at 2 mg/kg, iv and 10 mg/kg, po; type: ADME, organism-based; conditions: in vivo
[42] = Clearance in Beagle dog at 2 mg/kg, iv and 10 mg/kg, po; type: ADME, organism-based, Canis lupus familiaris; conditions: in vivo
[43] = tested on: Canis familiaris; test: Dose normalized AUC in Beagle dog measured per mg of plasma at 2 mg/kg, iv and 10 mg/kg, po; type: ADME, organism-based, Canis lupus familiaris; conditions: in vivo
[44] = Oral bioavailability in cynomolgus monkey at 5 mg/kg; type: ADME, organism-based, Macaca fascicularis; conditions: in vivo
[45] = tested on: Rattus norvegicus; test: Inhibition of leukocytes rolling flux in acute intravital microscopy model of Sprague-Dawley rat cremasteric postcapillary venules at 3 mg/kg, po after 35 mins relative to control; type: functional
[46] = tested on: Rattus norvegicus; test: Inhibition of leukocytes rolling flux in acute intravital microscopy Sprague-Dawley rat model at 30 mg/kg, po after 35 mins relative to control; type: functional
[47] = tested on: Plasma; test: Drug level in Sprague-Dawley rat plasma at 3 mg/kg, po; type: ADME, organism-based; set-up: dose 3 mg/kg, route oral; conditions: in vivo
[48] = tested on: Plasma; test: Drug level in Sprague-Dawley rat plasma at 30 mg/kg, po; type: ADME, organism-based; set-up: dose 30 mg/kg, route oral; conditions: in vivo
[49] = tested on: Papio anubis; test: Antithrombotic activity in Baboon deep vein thrombosis model assessed as vein opening at 1 mg/kg, po; type: functional, organism-based; set-up: dose 1 mg/kg
[50] = tested on: Papio anubis; test: Antithrombotic activity in Baboon deep vein thrombosis model assessed as decrease in vein wall inflammation at 1 mg/kg, po; type: functional, organism-based; set-up: dose 1 mg/kg
[51] = tested on: Papio anubis; test: Toxicity in Baboon deep vein thrombosis model assessed as induction of coagulation at 1 mg/kg, po; type: organism-based; set-up: dose 1 mg/kg, route oral; conditions: in vivo
[52] = Genotoxicity in Salmonella Typhimurium by Ames test; type: toxicity; conditions: salmonella enterica subsp. enterica serovar typhimurium

solubility [1]: 920 µg/mL (≈ 2260 µM)
solubility [2]: 165 µg/mL (≈ 405 µM)
bioavailability [3]: 67%
clearance [4]: 0.7 mL/min/kg
AUC [5]: 21000 ng·h/mL
remaining at 4 h [7]: 101%
remaining at 8 h [8]: 102%
remaining at 12 h [9]: 102%
remaining at 4 h [10]: 102%
remaining at 12 h [11]: 99.2%
remaining at 16 h [12]: 101%
remaining at 20 h [13]: 100%
remaining at 24 h [14]: 102%
remaining at 4 h [15]: 102%
remaining at 12 h [16]: 106%
remaining at 16 h [17]: 103%
remaining at 20 h [18]: 102%
remaining at 24 h [19]: 104%
remaining at 12 h [20]: 102%
remaining at 16 h [21]: 102%
remaining at 20 h [22]: 102%
remaining at 24 h [23]: 103%
remaining at 4 h [24]: 98.5%
remaining at 8 h [25]: 98%
remaining at 16 h [26]: 98.7%
remaining at 20 h [27]: 101%
remaining at 24 h [28]: 99.6%
remaining at 12 h [29]: 101%
remaining at 16 h [30]: 101%
remaining at 20 h [31]: 99.4%
remaining at 24 h [32]: 95%
remaining at 8 h [33]: 101%
remaining at 20 h [34]: 103%
remaining at 24 h [35]: 103%
half-life [36]: > 60 min
half-life [37]: > 60 min
half-life [38]: > 60 min
bioavailability [39]: 67%
clearance [40]: 7 mL/min/kg
AUC [41]: 1505 ng·h/mL
clearance [42]: 0.9 mL/min/kg
AUC [43]: 28862 ng·h/mL
bioavailability [44]: 96%
Cp [47]: 3 µg/mL
Cp [48]: 38 µg/mL
Structure (SMILES): O=C(O)c1c(O)c(C2(c3ccc(Cl)cc3)CC2)nc2c(C(F)(F)F)cccc12
Activity [6]: 69%
inhibition in vivo at 3 mg/kg [45]: 12%
inhibition in vivo at 30 mg/kg [46]: 61%
Activity [49]: Active
Activity [50]: Active
Activity [51]: Non-toxic
Activity [52]: Non-toxic
